Values joined by “and” are separate entries in the source; they are usually repeats but may differ in a detail not shown here. Equal entries are not always repeated.
Assays:
[1] = ECG evaluation of T-wave (grade 1) and ST segment (grade 2) abnormalities, phase II trial of romidepsin in T-cell lymphoma patients; type: in vivo, human; conditions: for ECGs Grade 0 (no T-wave/ST segment abnormality) / ECGs Grade 1 (T-wave abnormality) / ECGs Grade 2 (ST segment depression): all doses, n = 42 patients
From the text: The protocol (NCI 01-C-0049 or 1312) and informed consent were approved by the Institutional Review Board of the National Cancer Institute. All data used in this analysis were obtained from patients who signed an informed consent and were enrolled and treated at the NIH Warren Grant Magnuson Clinical Center. Toxicities were reported using the National Cancer Institute Common Toxicity Criteria, CTC version 2.0. The Inclusion Criteria required measurable disease, an age of 18 years or older, an ECOG performance status of 0, 1 or 2, and a life expectancy of >12 wk. Required laboratory values included AGC≧1000/μL, platelets≧100,000/μL, bilirubin <1.5× the institutional upper limit of normal (ULN), AST <3×ULN, and creatinine <1.5×ULN. Patients with a myocardial infarction within the previous 6 months, a left ventricular ejection fraction (LVEF) below normal (<45% if performed by MUGA, or <50% if performed by echocardiogram or cardiac MRI), a corrected QT interval of >500 ms, unstable angina, or third degree heart block (unless with pacemaker) were not eligible to enroll.
Subsequently, the protocol was amended and all patients were treated on days 1, 8 and 15 of a 28 day cycle, with a starting dose of 14 mg/m^2. This change was made for improved patient tolerability. […] Provisions for dose reduction were made in the case of grade 3 or 4 toxicity. Alternatively, a dose increase was allowed for patients who had no serious toxicities.

[2] = Serum cardiac troponin I and CPK levels prior to and on the day after each dose
Description: An additional ECG was obtained on day 3 of the first cycle. ECGs were obtained using an HP Pagewriter XLi or a GE Marquette MAC1200 and recorded at 25 mm/sec, with an amplitude of 10 mm/mV and with 60 Hz filtering. They were analyzed using Pagewriter A.04.01 ECG analysis software (Philips Medical Systems). The QT interval measurement in this program is made by averaging the five longest QT intervals with a T or T′ wave amplitude greater than 0.15 mV. […] Grade 1 toxicity was defined as nonspecific T-wave abnormalities, (flattening or inversion without ST segment abnormalities) and Grade 2 as ST segment depression of at least 1 mm in at least 2 leads. If both were observed, then the ECG was assigned a grade 2 toxicity. […] The QTc analysis was performed on ECGs obtained during the first six cycles from patients treated on the day 1, 8 and 15 schedule (37 patients). ECGs from patients with an intraventricular conduction delay, defined as QRS duration greater than 100 ms, were excluded from the QTc analysis since in that setting the QTc interval includes a variable depolarization interval that leads to a prolonged QTc value (22).

[3] = Pre-treatment cycle 2 day 1 (n = 34), worst grade cycle 1: 1
[4] = Pre-treatment cycle 2 day 1 (n = 34), worst grade cycle 1: 2
[5] = Pre-treatment cycle 3 day 1 (n = 28), worst grade cycle 2: 1
[6] = Pre-treatment cycle 3 day 1 (n = 28), worst grade cycle 2: 2
[7] = Pre-treatment day 8 (n = 37), worst grade post-day 1 treatment 0
[8] = Pre-treatment day 8 (n = 37), worst grade post-day 1 treatment 1
[9] = Pre-treatment day 8 (n = 37), worst grade post-day 1 treatment 2
[10] = Pre-treatment day 15 (n = 36), worst grade post-day 8 treatment 0
[11] = Pre-treatment day 15 (n = 36), worst grade post-day 8 treatment 1
[12] = Pre-treatment day 15 (n = 36), worst grade post-day 8 treatment 2
[13] = Day after treatment, listed as depsipeptide
[14] = Immediate post infusion, listed as depsipeptide
[15] = Pre-treatment ECGs, listed as depsipeptide
[16] = any time during treatment, 37 patients on day 1, 8, 15 schedule
[17] = first dose of the first cycle (n = 42), Day 2
[18] = first dose of the first cycle (n = 42), Day 3
[19] = first dose of the first cycle (n = 42), Post infusion
[20] = first dose of the first cycle (n = 42), Pre (baseline)
[21] = obtained in parallel with elevated cTnI samples, individual cases

C/C=C1\NC(=O)[C@H]2CSSCC/C=C/[C@H](CC(=O)N[C@H](C(C)C)C(=O)N2)OC(=O)[C@H](C(C)C)NC1=O [romidepsin, (1S,4S,10S,16E,21R)-7-[(2Z)-ethylidene]-4,21-diisopropyl-2-oxa-12,13-dithia-5,8,20,23-tetraazabicyclo[8.7.6]tricos-16-ene-3,6,9,19,22-pentanone]
Patients with worst ECG Grade 0 ([1]; All cycles, 42 patients): 2% | Patients with worst ECG Grade 1 ([1]; All cycles, 42 patients): 45% | Patients with worst ECG Grade 2 ([1]; All cycles, 42 patients): 52% | Patients with worst ECG Grade 0 ([1]; Cycle 1 only, 42 patients): 19% | Patients with worst ECG Grade 1 ([1]; Cycle 1 only, 42 patients): 57% | Patients with worst ECG Grade 2 ([1]; Cycle 1 only, 42 patients): 24% | Patients with ECG grade 0 at presentation for next cycle ([1]; Pre-treatment cycle 2 day 1 (n = 34), worst grade cycle 1: 0): 6 | Patients with ECG grade 0 at presentation for next cycle [1, 3]: 18 | Patients with ECG grade 1 at presentation for next cycle [1, 3]: 3 | Patients with ECG grade 0 at presentation for next cycle [1, 4]: 4 | Patients with ECG grade 1 at presentation for next cycle [1, 4]: 2 | Patients with ECG grade 2 at presentation for next cycle [1, 4]: 1 | Patients with ECG grade 0 at presentation for next cycle ([1]; Pre-treatment cycle 3 day 1 (n = 28), worst grade cycle 2: 0): 2 | Patients with ECG grade 0 at presentation for next cycle [1, 5]: 16 | Patients with ECG grade 1 at presentation for next cycle [1, 5]: 1 | Patients with ECG grade 0 at presentation for next cycle [1, 6]: 7 | Patients with ECG grade 1 at presentation for next cycle [1, 6]: 2 | Patients with ECG grade 0 at presentation for next cycle ([1]; Pre-treatment cycle 4 day 1 (n = 20), worst grade cycle 3: 1): 14 | Patients with ECG grade 0 at presentation for next cycle ([1]; Pre-treatment cycle 4 day 1 (n = 20), worst grade cycle 3: 2): 6 | Patients with ECG grade 0 at presentation for next dose [1, 7]: 14 | Patients with ECG grade 1 at presentation for next dose [1, 7]: two | Patients with ECG grade 1 at presentation for next dose ([1]; Pre-treatment day 8 (n = 37), worst grade post-day 1 treatment 0, listed as depsipeptide): 2 | Patients with ECG grade 0 at presentation for next dose [1, 8]: nine | Patients with ECG grade 1 at presentation for next dose [1, 8]: 8 | Patients with ECG grade 2 at presentation for next dose [1, 8]: 1 | Patients with ECG grade 0 at presentation for next dose ([1]; Pre-treatment day 8 (n = 37), worst grade post-day 1 treatment 1, listed as depsipeptide): 9 | Patients with ECG grade 0 at presentation for next dose [1, 9]: two | Patients with ECG grade 1 at presentation for next dose [1, 9]: 1 | Patients with ECG grade 0 at presentation for next dose ([1]; Pre-treatment day 8 (n = 37), worst grade post-day 1 treatment 2, listed as depsipeptide): 2 | Patients with ECG grade 0 at presentation for next dose [1, 10]: 6 | Patients with ECG grade 1 at presentation for next dose [1, 10]: 3 | Patients with ECG grade 0 at presentation for next dose [1, 11]: 13 | Patients with ECG grade 1 at presentation for next dose [1, 11]: 10 | Patients with ECG grade 0 at presentation for next dose [1, 12]: 2 | Patients with ECG grade 1 at presentation for next dose [1, 12]: 1 | Patients with ECG grade 2 at presentation for next dose [1, 12]: 1 | ECGs Grade 0 (no T-wave/ST segment abnormality) ([1]; Day after treatment): 20% | ECGs Grade 1 (T-wave abnormality) ([1]; Day after treatment): 69% | ECGs Grade 2 (ST segment depression) ([1]; Day after treatment): 11% | ECGs Grade 1 (T-wave abnormality) [1, 13]: 69% | ECGs Grade 2 (ST segment depression) [1, 13]: 11% | ECGs Grade 0 (no T-wave/ST segment abnormality) ([1]; Immediate post infusion): 49% | ECGs Grade 1 (T-wave abnormality) ([1]; Immediate post infusion): 48% | ECGs Grade 2 (ST segment depression) ([1]; Immediate post infusion): 3% | ECGs Grade 1 (T-wave abnormality) [1, 14]: 48% | ECGs Grade 2 (ST segment depression) [1, 14]: 3% | ECGs Grade 0 (no T-wave/ST segment abnormality) ([1]; Pre-treatment ECGs): 76% | ECGs Grade 1 (T-wave abnormality) ([1]; Pre-treatment ECGs): 22% | ECGs Grade 2 (ST segment depression) ([1]; Pre-treatment ECGs): 2% | ECGs Grade 1 (T-wave abnormality) [1, 15]: 22% | ECGs Grade 2 (ST segment depression) [1, 15]: 2% | Patients with worst ECG Grade 1 [1, 16]: 43% | Patients with worst ECG Grade 2 [1, 16]: 54% | ECGs Grade 0 [1, 17]: 49% | ECGs Grade 1 [1, 17]: 44% | ECGs Grade 2 [1, 17]: 7% | ECGs Grade 0 [1, 18]: 55% | ECGs Grade 1 [1, 18]: 45% | ECGs Grade 0 [1, 19]: 82% | ECGs Grade 1 [1, 19]: 18% | ECGs Grade 0 [1, 20]: 95% | ECGs Grade 1 [1, 20]: 5% | ST segment depression, grade 2 ([1]; first dose of the first cycle, day 3): not observed | Grade 2 ECGs meeting criteria consistent with ischemia (1 mm ST segment depression 80 msec after end of QRS) ([1]; of 69 ECGs scored grade 2, cardiologist review): 45% | Patients returning for the second cycle with no evidence of T-wave or ST-segment abnormalities ([1]; of the 34 patients returning for cycle 2): Twenty-eight | Number of cTnI samples found to be elevated ([2]; from 8 patients, 601 pre-treatment and 590 day-after samples): 10 | CPK Post-treatment [2, 21]: 20 and 28 (2×) and 18 and 16 and 85 and 157 and 144 and 162 | CPK Pre-treatment [2, 21]: 29 and 43 and 27 and 47 and 70 and 200 and 179 and 28 and 39 and 160 | CPK samples obtained in parallel with the 10 elevated cTnI samples ([2]; range, unchanged from pre-treatment): 16-200 | Troponin Post-treatment ([2]; serum cTnI, day following treatment, individual cases): 2.1-3.3 ng/ml and ≦0.2 ng/ml and 3.3 ng/ml and 2.1 ng/ml and 2.6 ng/ml and 8.3 ng/ml and 2.3 ng/ml and 15.8 ng/ml and 3.6 ng/ml | Troponin Repeat (of elevated pre-treatment sample) ([2]; serum cTnI, individual cases): ≤ 0.2 ng/ml and ≦0.2 ng/ml | Troponin Pre-treatment ([2]; serum cTnI, individual cases with an elevated sample among 1191 samples): 3.4-11.3 ng/ml and 11.3 ng/ml and ≦0.2 ng/ml and 3.4 ng/ml and 6.4 ng/ml | Troponin Repeat (of elevated post-treatment sample) ([2]; serum cTnI, repeated the same day, individual cases): ≤ 0.2 ng/ml and ≦0.2 ng/ml

Source: patent US9259452B2, “Deacetylase inhibitor therapy” (Celgene Corporation, priority 2006, dated 2016)
